According to patent US20170065593A1, “Combination” (Novartis AG, priority 2009, published 2017):

System: 95 cancer cell lines
Description: (Compound A) or mTOR inhibitor (mTORi, Rapamycin) alone or a combination of both agents at a ratio of 1:2 (MEKi:mTORi) and cell proliferation/death was measured after 3 day drug exposure. Briefly, cells were plated in 384-well plates at 500 cells/well in culture media appropriate for each cell type, supplemented with 10% FBS and 1% penicillin/streptomycin, and incubated overnight at 37° C., 5% CO2. […] (two fold dilutions ranging from 7.3 uM-0.014 nM) or with mTOR inhibitor (two fold dilutions ranging from 14.6 uM-0.112 nM) or in combination with both compounds and incubated for 72 hours. Cell growth was measured using the CellTiterGlo (CTG) reagent (Promega) according to the manufacturer's protocol. Data were analyzed using the XLfit (IDBS Ltd.) curve-fitting tool for Microsoft Excel. Growth IC50 (gIC50) and Ymin values were generated using a four-parameter curve fit algorithm (XLFit algorithm #205).
Results were expressed as a percent of the t=0 and plotted against the compound concentration. The T=0 value is normalized to 100% and represents the number of cells at the time of compound addition. […] Formula below was used to calculate mutually exclusive combination index (CI). Data were reported as log CI, where the logarithm value of CI was calculated.
CI=IC50 of a+b/IC50 of a+IC50 of b+a/IC50 of b
Synergy is defined as CI<1, additivity as CI=1 and antagonism as CI>1. Considering the variability of these proliferation assays we arbitrarily defined log CI>0.1 as antagonism, between −0.1 and 0.1 as no significant effect and <−0.1 as synergy.

In the case of “N-{3-[3-cyclopropyl-5-(2-fluoro-4-iodo-phenylamino)6,8-dimethyl;-2,4,7-trioxo-3,4,6,7-tetrahydro-2H-pyrido[4,3-d]pyrimidin-1-yl]phenyl}acetamide [Compound A]”, the “percentage of cell undergoing death (cytotoxic)” value is reported as 20% and the “cell lines undergoing death” value (independent of the KRAS status) is reported as > 20%.
